Like-named read-outs stand apart in the source and are kept apart here.

Consider 5 compounds from patent publication US8481532B2, “PDE-10 inhibitors” (EnVivo Pharmaceuticals, Inc., priority 2008, dated 2013).

Assay [1] addresses Human PDE10A1 (Homo sapiens, UniProt Q9Y233). As to the kind of experiment: hPDE10A1 Enzyme Inhibition ([3H]-cAMP scintillation assay). It is filed as biochemical. How it is done:
• hPDE10A1 Enzyme Activity: […] samples of serially diluted Human PDE10A1 enzyme were incubated with 50 μl of [^3H]-cAMP for 20 minutes (at 37° C.). Reactions were carried out in Greiner 96 deep well 1 ml master-block. The enzyme was diluted in 20 mM Tris HCl pH7.4 and [^3H]-cAMP was diluted in 10 mM MgCl2, 40 mM Tris.HCl pH 7.4. The reaction was terminated by denaturing the PDE enzyme (at 70° C.) after which [^3H]-5′-AMP was converted to [^3H]-adenosine by adding 25 μl snake venom nucleotidase and incubating for 10 minutes (at 37° C.). Adenosine, being neutral, was separated from charged cAMP or AMP by the addition of 200 μl Dowex resin. Samples were shaken for 20 minutes then centrifuged for 3 minutes at 2,500 r.p.m. 50 μl of supernatant was removed and added to 200 μl of MicroScint-20 in white plates (Greiner 96-well Optiplate) and shaken for 30 minutes before reading on Perkin Elmer TopCount Scintillation Counter. • hPDE10A1 Enzyme Inhibition: To check inhibition profile 11 μl of serially diluted inhibitor was added to 50 μl of [^3H]-cAMP and 50 μl of diluted Human PDE10A1 and assay was carried out as in the enzyme activity assay. Data was analysed using Prism software (GraphPad Inc).

Assay [2] deals with rats. The conditions noted are these: cited from earlier work.
[3] abbreviates: Human PDE10A1, [3H]-cAMP substrate, 20 minutes at 37° C., read-out: hPDE10A1 IC50 Band.

Sequence of Human PDE10A1 (Q9Y233 1-779 isoform Q9Y233-1): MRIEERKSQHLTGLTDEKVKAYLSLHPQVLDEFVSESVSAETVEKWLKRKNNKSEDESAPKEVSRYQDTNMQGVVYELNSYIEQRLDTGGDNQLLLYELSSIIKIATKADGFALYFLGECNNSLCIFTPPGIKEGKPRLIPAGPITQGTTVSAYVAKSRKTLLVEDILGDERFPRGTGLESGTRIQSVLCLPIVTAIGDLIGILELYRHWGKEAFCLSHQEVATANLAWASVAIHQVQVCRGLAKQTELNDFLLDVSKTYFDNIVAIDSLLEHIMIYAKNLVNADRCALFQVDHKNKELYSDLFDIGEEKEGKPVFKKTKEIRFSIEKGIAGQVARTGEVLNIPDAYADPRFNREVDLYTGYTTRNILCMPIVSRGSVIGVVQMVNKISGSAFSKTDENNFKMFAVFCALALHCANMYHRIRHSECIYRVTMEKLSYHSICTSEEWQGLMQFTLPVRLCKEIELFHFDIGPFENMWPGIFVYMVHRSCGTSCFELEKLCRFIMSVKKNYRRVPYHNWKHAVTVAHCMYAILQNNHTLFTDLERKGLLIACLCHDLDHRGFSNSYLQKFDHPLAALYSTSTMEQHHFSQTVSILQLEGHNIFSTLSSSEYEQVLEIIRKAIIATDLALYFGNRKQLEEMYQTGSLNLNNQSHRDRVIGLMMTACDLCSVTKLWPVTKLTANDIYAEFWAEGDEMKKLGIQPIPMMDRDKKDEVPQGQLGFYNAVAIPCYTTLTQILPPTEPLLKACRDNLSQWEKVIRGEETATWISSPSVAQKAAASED

Regarding `CC(C)(C)c1ccc(C2CC2C(=O)N/N=C/c2cccc3cnccc23)cc1` (stereo not shown) [Example 122, (E)-2-(4-tert-butylphenyl)-N′-(isoquinolin-5-ylmethylene) cyclopropanecarbohydrazide], in assay [1], the IC50 was < 200 nM. As for `O=C(N/N=C/c1cccc2cnccc12)C1CC1c1ccc(-c2ccccc2)cc1` (stereo not shown) [Example 196, (E)-2-(biphenyl-4-yl)-N′-(isoquinolin-5-ylmethylene)cyclopropanecarbohydrazide], in assay [1] (setting [3]), the IC50 is < 200 nM. For `C/C(=N\NC(=O)C1CC1c1ccc(C(C)(C)C)cc1)c1cccc2cnccc12` (stereo not shown) [Example 197, (E)-2-(4-tert-butylphenyl)-N′-(1-(isoquinolin-5-yl)ethylidene)cyclopropanecarbohydrazide], the IC50 in assay [1] (setting [3]) is < 1000 nM. On the same count and under the same terms, under `CN(/N=C/c1cccc2cnccc12)C(=O)C1CC1c1ccc(C(C)(C)C)cc1` (stereo not shown) [Example 198, (E)-2-(4-tert-butylphenyl)-N′-(isoquinolin-5-ylmethylene)-N-methylcyclopropanecarbohydrazide] stands < 200 nM. For the compound `COc1ccc(Cc2nccc3cc(OC)c(OC)cc23)cc1OC` [papaverine], in assay [2], the apomorphine induced stereotypies entry is reported as “reduces”, the haloperidol induced catalepsy result is “increases” and the “rat brain dopamine levels” value was “reduces”.

A word on the IC50: it is the concentration that inhibits the measured activity by half.
